Experiments:
[1] = test system: recombinant human anti-SARS-CoV antibody 03-018; format: binding; set-up: Binding of antibody 03-018 to linear peptides of the N protein of SARS-CoV Urbani / Binding of antibody 03-018 to looped/cyclic peptides of the N protein of SARS-CoV Urbani: unit not given here
[2] = test system: antibodies in sera from SARS patients (sera 1a, 1b, 2, 6, 37, 62, London, SARS-yellow, SARS-green); format: binding, human; set-up: Binding of serum 6 to linear peptides of protein X1 of SARS-CoV Urbani / Binding of serum 37 to linear peptides of protein X1 of SARS-CoV Urbani / Binding of serum 6 to looped/cyclic peptide (PEPSCAN-ELISA) / Binding of serum 37 to looped/cyclic peptide (PEPSCAN-ELISA) / Binding of serum 37 to looped/cyclic peptides of protein X1 of SARS-CoV Urbani / Binding of serum 6 to linear peptides of protein X2 / Binding of serum 37 to linear peptides of protein X2 / Binding of serum 37 to looped/cyclic peptides of protein X2 of SARS-CoV Urbani / Binding of serum 6 to linear peptides of protein M of SARS-CoV Urbani / Binding of serum 37 to linear peptides of protein M of SARS-CoV Urbani / Binding of serum 6 to looped/cyclic peptides of protein M of SARS-CoV Urbani / Binding of serum 37 to looped/cyclic peptides of protein M of SARS-CoV Urbani / Binding of serum 6 to linear peptides of protein X3 of SARS-CoV Urbani / Binding of serum 37 to linear peptides of protein X3 of SARS-CoV Urbani / Binding of serum 37 to looped/cyclic peptides of protein X3 of SARS-CoV Urbani / Binding of serum 6 to linear peptides of protein X4 of SARS-CoV Urbani / Binding of serum 37 to linear peptides of protein X4 of SARS-CoV Urbani / Binding of serum 37 to looped/cyclic peptides of protein X4 of SARS-CoV Urbani / Binding of serum 6 to linear peptides of protein X5 of SARS-CoV Urbani / Binding of serum 37 to linear peptides of protein X5 of SARS-CoV Urbani / Binding of serum 37 to looped/cyclic peptides of protein X5 of SARS-CoV Urbani / Binding of serum 6 to linear peptides of protein N of SARS-CoV Urbani / Binding of serum 37 to linear peptides of protein N of SARS-CoV Urbani / Binding of serum 6 to linear peptide (PEPSCAN-ELISA) / Binding of serum 1a to looped/cyclic peptides of protein N of SARS-CoV Urbani / Binding of serum 1b to looped/cyclic peptides of protein N of SARS-CoV Urbani / Binding of serum 2 to looped/cyclic peptides of protein N of SARS-CoV Urbani / Binding of serum 6 to looped/cyclic peptides of protein N of SARS-CoV Urbani / Binding of serum 37 to looped/cyclic peptides of protein N of SARS-CoV Urbani / Binding of serum 62 to looped/cyclic peptides of protein N of SARS-CoV Urbani / Binding of serum London to looped/cyclic peptides of protein N of SARS-CoV Urbani / Binding of serum SARS-green to looped/cyclic peptides of protein N of SARS-CoV Urbani: unit not given here
[3] = test system: rabbit serum obtained by immunizing a rabbit with the SARS-CoV strain Frankfurt 1; format: binding; set-up: Binding of a rabbit serum to linear peptides / Binding of a rabbit serum to looped peptides / Rabbit serum linear peptides / Rabbit serum looped peptides / Binding of a rabbit serum to linear peptides of protein N of SARS-CoV Urbani (Rabbit serum linear peptides) / Binding of a rabbit serum to looped/cyclic peptides of protein N of SARS-CoV Urbani (Rabbit serum looped peptides): unit not given here
[4] = test system: control sera (pooled serum of ten healthy LUMC hospital workers; commercial negative donor pooled serum from the Dutch bloodbank); format: binding, human; set-up: Binding of Control serum LUMC to linear peptides / Binding of Control serum Blood-bank to linear peptides / Binding of Control serum LUMC to looped peptides / Binding of Control Serum Blood-Bank to Looped peptides / Binding of Control serum LUMC to linear peptides of the protein M of SARS-CoV Urbani / Binding of Control serum Blood-bank to linear peptides of the protein M of SARS-CoV Urbani / Binding of Control serum LUMC to looped peptides of the protein M of SARS-CoV Urbani / Binding of Control Serum Blood-Bank to Looped peptides of the protein M of SARS-CoV Urbani: unit not given here

| Sequence | Binding of antibody 03-018 to linear peptides of the N protein of SARS-CoV Urbani [1] | Binding of antibody 03-018 to looped/cyclic peptides of the N protein of SARS-CoV Urbani [1] | Binding of serum 1a to linear peptide (PEPSCAN-ELISA) [2] | Binding of serum 1a to looped/cyclic peptides of protein N of SARS-CoV Urbani [2] | Binding of serum 1b to linear peptide (PEPSCAN-ELISA) [2] | Binding of serum 1b to looped/cyclic peptides of protein N of SARS-CoV Urbani [2] | Binding of serum 2 to linear peptide (PEPSCAN-ELISA) [2] | Binding of serum 2 to looped/cyclic peptides of protein N of SARS-CoV Urbani [2] | Binding of serum 6 to linear peptide (PEPSCAN-ELISA) [2] | Binding of serum 6 to looped/cyclic peptides of protein N of SARS-CoV Urbani [2] | Binding of serum 37 to linear peptide (PEPSCAN-ELISA) [2] | Binding of serum 37 to looped/cyclic peptides of protein N of SARS-CoV Urbani [2] | Binding of serum 62 to linear peptide (PEPSCAN-ELISA) [2] | Binding of serum 62 to looped/cyclic peptides of protein N of SARS-CoV Urbani [2] | Binding of serum London to linear peptide (PEPSCAN-ELISA) [2] | Binding of serum London to looped/cyclic peptides of protein N of SARS-CoV Urbani [2] | Binding of serum SARS-green to linear peptide (PEPSCAN-ELISA) [2] | Binding of serum SARS-green to looped/cyclic peptides of protein N of SARS-CoV Urbani [2] | Binding of serum SARS-yellow to linear peptide (PEPSCAN-ELISA) [2] | Binding of serum SARS-yellow to looped/cyclic peptides of protein N of SARS-CoV Urbani [2] | also measured |
| --- | --- | --- | --- | --- | --- | --- | --- | --- | --- | --- | --- | --- | --- | --- | --- | --- | --- | --- | --- | --- | --- |
| GFYAEGSRGGSQASS | 0.1 | 0.2 | 0.3 | 0.3 | 0.1 | 0.2 | 0.2 | 0.4 | 0.4 | 0.3 | 0.7 | 0.3 | 0.5 | 0.2 | 0.4 | 0.3 | 0.1 | 0.3 | 0.4 | 0.1 | Binding of a rabbit serum to linear peptides of protein N of SARS-CoV Urbani (Rabbit serum linear peptides) [3]: 0.1; Binding of a rabbit serum to looped/cyclic peptides of protein N of SARS-CoV Urbani (Rabbit serum looped peptides) [3]: 0.0; Binding of Control Serum Blood-Bank to Looped peptides [4]: 0.5; Binding of Control serum Blood-bank to linear peptides [4]: 0.7; Binding of Control serum LUMC to linear peptides [4]: 0.6; Binding of Control serum LUMC to looped peptides [4]: 0.5 |
| GGETALALLLLDRLN | 0.1 | 0.2 | 0.2 | 0.4 | 0.1 | 0.3 | 0.2 | 0.5 | 0.2 | 0.2 | 0.6 | 0.7 | 0.6 | 0.7 | 0.4 | 0.5 | 0.4 | 0.3 | 0.5 | 0.7 | Binding of a rabbit serum to linear peptides of protein N of SARS-CoV Urbani (Rabbit serum linear peptides) [3]: 0.1; Binding of a rabbit serum to looped/cyclic peptides of protein N of SARS-CoV Urbani (Rabbit serum looped peptides) [3]: 0.6; Binding of Control Serum Blood-Bank to Looped peptides [4]: 0.8; Binding of Control serum Blood-bank to linear peptides [4]: 0.7; Binding of Control serum LUMC to linear peptides [4]: 0.6; Binding of Control serum LUMC to looped peptides [4]: 0.8 |
| GGGETALALLLLDRL | 0.1 | 0.2 | 0.2 | 0.4 | 0.1 | 0.3 | 0.1 | 0.5 | 0.1 | 0.2 | 0.7 | 0.8 | 0.5 | 0.7 | 0.4 | 0.4 | 0.2 | 0.3 | 0.6 | 0.7 | Binding of a rabbit serum to linear peptides of protein N of SARS-CoV Urbani (Rabbit serum linear peptides) [3]: 0.1; Binding of a rabbit serum to looped/cyclic peptides of protein N of SARS-CoV Urbani (Rabbit serum looped peptides) [3]: 0.7; Binding of Control Serum Blood-Bank to Looped peptides [4]: 0.7; Binding of Control serum Blood-bank to linear peptides [4]: 0.5; Binding of Control serum LUMC to linear peptides [4]: 0.6; Binding of Control serum LUMC to looped peptides [4]: 0.8 |
